Measurements taken from the NIST ThermoML archive (doi:10.1016/j.jct.2014.10.023).

Assay: excess molar enthalpy (molar enthalpy of mixing); xn = mol fraction of the nth substance listed
Settings: 101 kPa, Liquid, Calvet calorimetry

[Li] [lithium] + [Ag]
Settings	excess molar enthalpy [kcal/mol]
873 K, x1 = 0.5664	-2.79
873 K, x1 = 0.5985	-2.69
873 K, x1 = 0.6338	-2.57
873 K, x1 = 0.6719	-2.4
873 K, x1 = 0.7007	-2.25
873 K, x1 = 0.7274	-2.09
873 K, x1 = 0.7617	-1.87
873 K, x1 = 0.7867	-1.7
873 K, x1 = 0.8408	-1.22
873 K, x1 = 0.8972	-0.767
873 K, x1 = 0.932	-0.474
873 K, x1 = 0.9771	-0.0813
1253 K, x1 = 0.1002	-0.73
1253 K, x1 = 0.1043	-0.754
1253 K, x1 = 0.1097	-0.799
1253 K, x1 = 0.1152	-0.853
1253 K, x1 = 0.1205	-0.897
1253 K, x1 = 0.1287	-0.956
1253 K, x1 = 0.1355	-1.01
1253 K, x1 = 0.1461	-1.1
1253 K, x1 = 0.1583	-1.21
1253 K, x1 = 0.1698	-1.35
1253 K, x1 = 0.1884	-1.51
1253 K, x1 = 0.1995	-1.6
1253 K, x1 = 0.2187	-1.73
1253 K, x1 = 0.264	-1.85
1253 K, x1 = 0.2711	-1.88
1253 K, x1 = 0.2851	-1.95
1253 K, x1 = 0.2976	-2.02
1253 K, x1 = 0.3124	-2.12
1253 K, x1 = 0.3281	-2.2
1253 K, x1 = 0.3503	-2.29
1253 K, x1 = 0.3774	-2.42
1253 K, x1 = 0.4086	-2.52
1253 K, x1 = 0.4371	-2.61
1253 K, x1 = 0.4847	-2.72
1253 K, x1 = 0.5245	-2.75
